# Assay results from US11186588B2 (AYUMI PHARMACEUTICAL CORPORATION, priority 2017, dated 2021).
# What was measured:
# IL-6 production = assay: LPS-induced IL-6 production model test; type: in vivo, C57BL/6J mice; details: 10 mg/kg oral, 30 min before LPS 1 mg/kg i.p., serum IL-6 60 min after LPS, mice
# Protocol: In order to evaluate the inhibitory activity of inflammatory cytokine production in the present compounds, LPS-induced IL-6 production model evaluation was carried out. The specific method is described below.
# An appropriate amount of each compound was weighed, triturated with an agate mortar, and suspended or dissolved in 1% methyl cellulose solution to prepare 1 mg/mL solution.
# C57BL/6J mice (male, Purchaser: Charles River Laboratories Japan, Inc.) were weighted, before divided into normal group, control group and each compound-administered group based on the measured body weight using a random number, wherein each group contained 6 samples. The mice were manually held in hands and forced orally administered the 1% methyl cellulose solution (normal and control group) or each administration solution comprising the compound (each compound-administered group) at a dose of 10 mL/kg into stomach using a feeding needle. After 30 minutes from administration of the 1% methyl cellulose solution or each compound administration solution, the mice were manually held in hands and intraperitoneally administered physiological saline (normal group) or LPS solution (control and each compound-administered group) at a dose of 1 mg/kg. After 60 minutes from administration of the LPS solution, whole blood was collected from the abdominal vena cava of each mouse under isoflurane inhalation anesthesia (available from Mylan Seiyaku Ltd.), and the mice were euthanized. The collected blood was allowed to stand at room temperature for one hour, and then centrifuged at 1,500 G for 10 minutes to collect a serum (supernatant). The collected serum was stored in a deep freezer set at −80° C. until the measurement of IL-6 in the serum. The IL-6 concentration in the serum of each mouse was measured by a commercially available kit (available from R&D systems, Cat No. M6000B), according to the protocol attached thereto.
# The IL-6 production inhibition rate (%) was calculated by the following equation using Microsoft EXCEL 2010. IL-6 production inhibition rate (%)=100−{(average value of IL-6 concentration in serum of each compound-administered group)−(average value of IL-6 concentration in serum of normal group))/(average value of IL-6 concentration in serum of control group)−(average value of IL-6 concentration in serum of normal group)}×100
# [1] = Pharmacokinetics test in rats (oral administration); type: in vivo, LEW/CrlCrlj rats; details: mean n = 4; for AUCinf / AUCt / Cmax / Kel / MRT / T1/2 / Tmax: oral 2 mg/mL solution at 5 mL/kg; for Concentration (ng/mL), sampling time 0.5 h / Concentration (ng/mL), sampling time 1 h / Concentration (ng/mL), sampling time 3 h / Concentration (ng/mL), sampling time 6 h: plasma; for Concentration (ng/mL), sampling time 0.5 h: 0.5 h after oral 2 mg/mL solution at 5 mL/kg; for Concentration (ng/mL), sampling time 1 h: 1 h after oral 2 mg/mL solution at 5 mL/kg; for Concentration (ng/mL), sampling time 3 h: 3 h after oral 2 mg/mL solution at 5 mL/kg; for Concentration (ng/mL), sampling time 6 h: 6 h after oral 2 mg/mL solution at 5 mL/kg
# Protocol: In order to evaluate the transition of plasma concentration of the present compound after oral administration, pharmacokinetics was evaluated in rats. The specific method is described below.
# Appropriate amounts of Example 71 and various salts thereof were weighed, triturated with an agate mortar, and suspended or dissolved in 1% methyl cellulose solution to 2 mg/mL (as a converted quantity of Example 71 considering the correction of purify).
# LEW/CrlCrlj rats (male, purchased form Charles River Laboratories Japan, Inc.) were weighted, a random number based on the measured body weight was used to avoid difference in average body weight among groups, and the rats were divided into groups, wherein each groups contained 4 rats. The rats were manually held in hands and forced orally administered each administration solution comprising the compound at a dose of 5 mL/kg into stomach using a feeding needle. At 0.5, 1, 3, 6 and 24 hours after the administration of each administration solution comprising the compound, the rats were manually held in hands, and blood was collected from the jugular vein or subclavian vein using a heparin-treated injection syringe. The obtained blood was centrifuged at 1,500 G for 10 minutes, and plasma was collected as an actual sample. In addition, plasma was collected from rats before the administration of the compound in the same manner, which was used as blank plasma. The collected actual samples and blank plasma were stored in a freezer set at −70° C. until the measurement of the compound concentration. To 20 μL of each actual sample were added 20 μL of acetonitrile (available from Kishida Chemical Co., Ltd., Cat No. 140-00401), 100 μL of MilliQ water and 20 μL of the internal standard solution to prepare an analytical sample. In addition, to 20 μL of blank plasma were added 20 μL or 40 μL of acetonitrile (available from Kishida Chemical Co., Ltd., Cat No. 140-00401) and 100 μL of MilliQ water (a blank sample or a zero sample, respectively). A standard sample for a calibration curve was prepared by mixing 20 μL of blank plasma, 20 μL of the standard solution for a calibration curve in each concentration, 100 μL of MilliQ water and 20 μL of the internal standard solution. Whole amount of the prepared each sample was applied to a diatomaceous earth column for liquid-liquid extraction (available from Biotage, Cat No. 820-0200), tert-butyl methyl ether (available from Kanto Chemical Co., Inc., Cat No. 04418-5B) was added and eluted by natural dropping, and the obtained eluate was concentrated to dryness under a nitrogen stream. The residue was dissolved in the re-dissolved solution and 10 μL of each sample was injected into the LC/MS/MS apparatus.
# LC/MS/MS analysis was carried out under the following conditions. Analytical column: Hydrosphere C18, 3 μm, 2.0 mm I.D.×50 mm (from YMC, Cat No. HS12S03-0502WT)
# Flow rate: 0.3 mL/min. Column temperature: 50° C. Peak area calculation, peak area ratio calculation, preparation of calibration and quantification used in calculating the concentration for the LC/MS/MS analysis were carried out by Analyst ver.1.6.2 (available from AB Sciex). In addition, by using the obtained concentration measurement results, these were analyzed by Non-compartmental model of a pharmacokinetics analysis program WinNonlin ver.6.1 (Pharsight Corporation), and the pharmacokinetics parameter was calculated.
SMILES,AUCinf [1],AUCt [1],Cmax [1],Kel [1],MRT [1],T1/2 [1],Tmax [1],"Concentration (ng/mL), sampling time 0.5 h [1]","Concentration (ng/mL), sampling time 1 h [1]","Concentration (ng/mL), sampling time 3 h [1]","Concentration (ng/mL), sampling time 6 h [1]",LPS-induced IL-6 production (% Inhibition @ 10 mg/kg) (IL-6 production)
CC(=O)Nc1ccc(C2=NN(Cc3cccnc3)c3nnc(C)n3-c3sc(C)c(C)c32)cc1.CC(=O)Nc1ccc(C2=NN(Cc3cccnc3)c3nnc(C)n3-c3sc(C)c(C)c32)cc1.O=C(O)/C=C/C(=O)O [0.5 Fumarate of Example 71],54.47 ng·h/mL,31.38 ng·h/mL,15.70 ng/mL,0.35 h⁻¹,1.63 h,3.02 h,0.50 h,15.70 ng/mL,11.3 ng/mL,4.28 ng/mL,2.29 ng/mL,83.0%
CC(=O)Nc1ccc(C2=NN(Cc3cccnc3)c3nnc(C)n3-c3sc(C)c(C)c32)cc1.CC(=O)Nc1ccc(C2=NN(Cc3cccnc3)c3nnc(C)n3-c3sc(C)c(C)c32)cc1.O=C(O)CCC(=O)O [0.5 Succinate of Example 71],106.41 ng·h/mL,104.34 ng·h/mL,79.8 ng/mL,0.64 h⁻¹,1.30 h,1.10 h,0.50 h,79.8 ng/mL,36.2 ng/mL,6.88 ng/mL,1.3 ng/mL,83.0%
CC(=O)Nc1ccc(C2=NN(Cc3cccnc3)c3nnc(C)n3-c3sc(C)c(C)c32)cc1.O=C(O)/C=C\C(=O)O [1 Maleate of Example 71],118.01 ng·h/mL,115.41 ng·h/mL,80.1 ng/mL,0.64 h⁻¹,1.27 h,1.09 h,0.50 h,80.1 ng/mL,42.9 ng/mL,7.69 ng/mL,1.66 ng/mL,82.0%

# Now from value to compound, other results behind:
AUCinf [1],AUCt [1],Cmax [1],Kel [1],MRT [1],T1/2 [1],Tmax [1],"Concentration (ng/mL), sampling time 0.5 h [1]","Concentration (ng/mL), sampling time 1 h [1]","Concentration (ng/mL), sampling time 3 h [1]","Concentration (ng/mL), sampling time 6 h [1]",SMILES,LPS-induced IL-6 production (% Inhibition @ 10 mg/kg) (IL-6 production)
105.65 ng·h/mL,114.07 ng·h/mL,111.0 ng/mL,0.57 h⁻¹,1.12 h,1.24 h,0.50 h,111.0 ng/mL,34.0 ng/mL,6.75 ng/mL,1.5 ng/mL,CC(=O)Nc1ccc(C2=NN(Cc3cccnc3)c3nnc(C)n3-c3sc(C)c(C)c32)cc1.Cl [1 Hydrochloride of Example 71],82.7%
101.11 ng·h/mL,95.75 ng·h/mL,62.1 ng/mL,0.52 h⁻¹,1.48 h,1.42 h,0.50 h,62.1 ng/mL,34.7 ng/mL,7.04 ng/mL,2.46 ng/mL,CC(=O)Nc1ccc(C2=NN(Cc3cccnc3)c3nnc(C)n3-c3sc(C)c(C)c32)cc1.Cc1ccc(S(=O)(=O)O)cc1 [1 Tosylate of Example 71],85.0%
